Reference: the supplement of paper PMC8149375

Columns and labels:
Conditions in all cases: treatment: drug + dasatinib (fixed dose, not stated); 5 days
SN12C [1] = assay: GI50 of drug in presence of dasatinib; higher = less potent
Experimental: (§1)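 Primary HTS combination arm: 8 RCC cell lines treated with 8 doses (up to 10 uM) of each library drug plus a fixed dose of dasatinib (dose not stated) for 5 days; viability read by CellTiter-Glo and normalised to DMSO. GI50 was fitted with XLfit, AUC is the area under the dose-response curve, and minimum viability is the lowest fraction of DMSO viability across doses.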

786-O [2] = assay: as above
Experimental: as §1

A498 [3] = assay: as above
Experimental: as §1

UO-31 [4] = assay: as above
Experimental: as §1

CAKI-1 [5] = assay: as above
Experimental: as §1

769-P [6] = assay: as above
Experimental: as §1

TK-10 [7] = assay: as above
Experimental: as §1

ACHN [8] = assay: as above
Experimental: as §1

SN12C [9] = assay: minimum viability across doses, drug + dasatinib, relative to DMSO (fraction); higher = less growth inhibition
Experimental: as §1

786-O [10] = assay: as above
Experimental: as §1

A498 [11] = assay: as above
Experimental: as §1

UO-31 [12] = assay: as above
Experimental: as §1

CAKI-1 [13] = assay: as above
Experimental: as §1

769-P [14] = assay: as above
Experimental: as §1

TK-10 [15] = assay: as above
Experimental: as §1

ACHN [16] = assay: as above
Experimental: as §1

SN12C [17] = assay: AUC of dose-response viability curve, drug + dasatinib, normalised to DMSO (arbitrary (AUC of normalised viability)); higher = less growth inhibition
Experimental: as §1

786-O [18] = assay: as above
Experimental: as §1

A498 [19] = assay: as above
Experimental: as §1

UO-31 [20] = assay: as above
Experimental: as §1

CAKI-1 [21] = assay: as above
Experimental: as §1

769-P [22] = assay: as above
Experimental: as §1

TK-10 [23] = assay: as above
Experimental: as §1

ACHN [24] = assay: as above
Experimental: as §1

SMILES | GI50 of drug (SN12C [1]) | GI50 of drug (786-O [2]) | GI50 of drug (A498 [3]) | GI50 of drug (UO-31 [4]) | GI50 of drug (CAKI-1 [5]) | GI50 of drug (769-P [6]) | GI50 of drug (TK-10 [7]) | GI50 of drug (ACHN [8]) | minimum viability across doses (SN12C [9]) | minimum viability across doses (786-O [10]) | minimum viability across doses (A498 [11]) | minimum viability across doses (UO-31 [12]) | minimum viability across doses (CAKI-1 [13]) | minimum viability across doses (769-P [14]) | minimum viability across doses (TK-10 [15]) | minimum viability across doses (ACHN [16]) | AUC of dose-response viability curve (SN12C [17]) | AUC of dose-response viability curve (786-O [18]) | AUC of dose-response viability curve (A498 [19]) | AUC of dose-response viability curve (UO-31 [20]) | AUC of dose-response viability curve (CAKI-1 [21]) | AUC of dose-response viability curve (769-P [22]) | AUC of dose-response viability curve (TK-10 [23]) | AUC of dose-response viability curve (ACHN [24])
FC(F)c1nc2ccccc2n1-c1nc(N2CCOCC2)nc(N2CCOCC2)n1 [ZSTK474] + Cc1nc(Nc2ncc(C(=O)Nc3c(C)cccc3Cl)s2)cc(N2CCN(CCO)CC2)n1 [dasatinib] | 420 nM | 118 nM | 1090 nM | 194 nM | 44.5 nM | 169 nM | 328 nM | 102 nM | 0.159 | 0.00535 | 0.0549 | 0.00787 | 0.0415 | 0.0686 | 0.115 | 0.0709 | 1.99 | 1.61 | 2.35 | 1.73 | 1.37 | 1.61 | 1.97 | 1.45
O=C(O)c1ccc2c(c1)nc(Nc1cccc(Cl)c1)c1ccncc12 [cx-4945 (Silmitasertib)] + Cc1nc(Nc2ncc(C(=O)Nc3c(C)cccc3Cl)s2)cc(N2CCN(CCO)CC2)n1 [dasatinib] | > 10000 nM | < 3 nM | > 10000 nM | > 10000 nM | 1270 nM | > 10000 nM | > 10000 nM | 3240 nM | 0.642 | 0.313 | 0.47 | 0.865 | 0.033 | 0.595 | 0.645 | 0.169 | 2.52 | 1.99 | 2.87 | 4.08 | 2.12 | 2.44 | 2.54 | 2.01
